# Data reported in patent publication US7256172B1, “Method of treatment and agents useful for same” (The University of Melbourne, priority 1998, dated 2007).
# No end group written: not given here.
# How the values were obtained:
# [1] = system: mouse trachea; details: for increase in Isc in presence of indomethacin: cyclooxygenase inhibitor indomethacin; for change in Isc: luminally applied
# From the text: Mice were killed by a lethal overdose of sodium pentobarbitone and the tracheae rapidly excised. The trachea was opened longitudinally through the ventral cartilage rings to make a fiat sheet. Each sheet of trachea was mounted between two perspex chambers so that the mucosal (luminal) and submucosal and bathed with warmed, oxygenated Krebs' solution, independently on each side. Electrodes in the chambers allowed recordings of transepithelial potential difference using an amplifier. The tissue was voltage clamped at 0 mV by passing a current from the amplifier via another set of electrodes in the chambers. The amount of current required to maintain voltage at 0 mV is defined as the short circuit current (Isc) and is conventionally used as a measure of all ionic fluxes across the preparation.
# (§1) After an equilibration time of 30 min, compounds for testing and drugs to elucidate the mechanism of any changes in Isc to the test compounds were added to either side of the tracheal epithelium (ie to either bath). Compounds used for increasing Isc were PGE2, adenosine 5′-triphosphate (ATP), uridine 5′-triphosphate (UTP) and the PAR1-, PAR2- and PAR4-activating peptides, SFLLRN (SEQ ID NO:1) and SLIGRL (SEQ ID NO:2) and GYPGQY (SEQ ID NO:6), respectively. These stimulants were added cumulatively with controls for any time-dependent tachyphylaxis.
# [2] = system: guinea-pig taenia coli; details: apamin (100 μM)
# Description: 2 cm strips of teania coil with intact Auerbach's plexus, but which had been stripped of the mucosa, were suspended in Kreb's solution under 1 g passive tension, and contracted with histamine (1 μM) to induce active tension.
# [3] = target: mouse protease activated receptor 1 (PAR1), in mouse bronchus and trachea tissue (mouse) (UniProt P30558); assay: cell-based or functional assay
# mouse protease activated receptor 1 (PAR1), in mouse bronchus and trachea tissue (mouse), sequence (P30558 42-430): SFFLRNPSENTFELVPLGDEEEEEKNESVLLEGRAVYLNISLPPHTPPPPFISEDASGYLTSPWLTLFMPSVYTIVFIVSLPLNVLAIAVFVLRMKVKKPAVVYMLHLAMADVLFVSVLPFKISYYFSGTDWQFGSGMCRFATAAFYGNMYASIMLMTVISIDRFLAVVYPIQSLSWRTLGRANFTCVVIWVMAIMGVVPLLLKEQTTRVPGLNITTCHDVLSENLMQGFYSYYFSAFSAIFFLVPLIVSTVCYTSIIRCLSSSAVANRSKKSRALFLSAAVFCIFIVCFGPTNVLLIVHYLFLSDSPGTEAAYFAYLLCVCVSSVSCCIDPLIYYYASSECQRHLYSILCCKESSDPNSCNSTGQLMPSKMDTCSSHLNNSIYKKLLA
# [4] = target: PAR1-like receptor ("atypical" thrombin receptor) of human coronary artery endothelial cells (human); assay: cell-based or functional assay
# [5] = system: human bronchial epithelium; details: after amiloride
# Description: Human airways were obtained from discarded sections of lungs of patients undergoing lobectomy operations at the Royal Melbourne Hospital, Melbourne, Australia usually for lung cancer. The dissection and set up were as described above for the mouse trachea.
# as §1
# [6] = system: human coronary artery rings; details: for maximum (Rmax % contraction reversal): endothelium-intact, control; for relaxation after removal of the endothelium: endothelium-denuded
# [7] = system: monkey small bronchi
# From the text: The experimental details are similar to those for the mouse isolated bronchi. Briefly, approximately 2 mm long rings of small bronchi were mounted on wire hooks. In each trace, half log concentrations are not depicted for clarity.
# [8] = target: PAR1 (Homo sapiens, UniProt P25116); details: concentrations up to 1 mM, human platelets; cited from earlier work
# PAR1, sequence (P25116 22-425): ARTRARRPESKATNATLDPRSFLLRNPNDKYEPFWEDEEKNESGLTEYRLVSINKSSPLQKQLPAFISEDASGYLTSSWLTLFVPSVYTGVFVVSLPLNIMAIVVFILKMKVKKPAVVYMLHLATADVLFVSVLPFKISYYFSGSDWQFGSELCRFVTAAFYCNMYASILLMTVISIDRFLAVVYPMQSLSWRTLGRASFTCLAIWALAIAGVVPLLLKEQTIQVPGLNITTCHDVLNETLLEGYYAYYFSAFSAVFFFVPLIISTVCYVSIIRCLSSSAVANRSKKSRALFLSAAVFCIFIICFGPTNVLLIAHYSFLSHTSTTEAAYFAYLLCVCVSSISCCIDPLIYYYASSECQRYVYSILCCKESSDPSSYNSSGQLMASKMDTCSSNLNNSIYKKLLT
# [9] = target: T1, mouse protease activated receptor 2 (PAR2), in mouse bronchus and trachea tissue (mouse) (UniProt P55086); assay: cell-based or functional assay
# T1 sequence (looked up): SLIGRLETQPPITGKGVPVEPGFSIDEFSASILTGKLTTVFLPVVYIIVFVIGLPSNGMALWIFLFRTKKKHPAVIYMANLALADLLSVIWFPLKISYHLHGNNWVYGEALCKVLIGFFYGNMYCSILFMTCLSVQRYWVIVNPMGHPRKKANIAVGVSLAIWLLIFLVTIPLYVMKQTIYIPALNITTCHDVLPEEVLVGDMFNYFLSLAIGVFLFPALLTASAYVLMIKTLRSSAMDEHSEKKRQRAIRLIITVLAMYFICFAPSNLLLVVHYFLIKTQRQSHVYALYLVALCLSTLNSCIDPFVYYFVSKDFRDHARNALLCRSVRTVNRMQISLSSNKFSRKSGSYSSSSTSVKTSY
# [10] = target: T2, rat protease activated receptor 2 (PAR2), in rat airway tissue (rat) (UniProt Q63645); assay: cell-based or functional assay
# T2 sequence (looked up): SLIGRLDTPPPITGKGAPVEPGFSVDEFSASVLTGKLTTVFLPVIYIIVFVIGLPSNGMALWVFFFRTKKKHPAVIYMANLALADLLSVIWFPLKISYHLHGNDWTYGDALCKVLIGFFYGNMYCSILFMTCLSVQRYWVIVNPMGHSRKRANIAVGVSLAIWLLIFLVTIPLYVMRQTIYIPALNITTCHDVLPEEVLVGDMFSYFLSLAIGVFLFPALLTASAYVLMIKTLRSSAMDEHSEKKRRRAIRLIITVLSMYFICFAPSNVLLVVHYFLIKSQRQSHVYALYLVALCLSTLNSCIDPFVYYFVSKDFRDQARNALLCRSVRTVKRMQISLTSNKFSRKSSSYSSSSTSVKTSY
# [11] = target: guinea-pig protease activated receptor 2 (PAR2), in guinea-pig bronchus tissue (guinea-pig); assay: cell-based or functional assay
# [12] = system: mouse bronchial rings; details: for response of epithelium-intact bronchi: contracted to approximately 40% Fmax with carbachol; for response in presence of cyclooxygenase inhibitors: indomethacin (3 μM) or aspirin (100 μM)
# From the text: (§2) The right and left main bronchi and their first order branches of specific pathogenfree (SPF) Balb/c mice (15–20 g; either sex), Hartley tricolour guinea-pigs (300–400 g; male) and Sprague-Dawley rats (200–350 g; either sex), all killed by either cervical dislocation or overdosed (i.p.) with sodium pentobarbitone, were cleared of surrounding connective tissue, nerves and blood vessels under a dissecting microscope and placed in cold, carbogenated (95% v/v O2,5% v/v CO2) Krebs solution (Kemp and Cocks, 1997). Human airway preparations (0.5–1 mm in external diameter) were dissected from lungs of cancer patients undergoing thoracotomy at The Royal Melbourne Hospital, Melbourne, Australia. The epithelium was removed from some bronchi either by mechanical abrasion of the luminal surface (guinea-pig) or by brief, gentle intraliminal flushing of the airways with Krebs containing 0.1% v/v Triton-X100 (mouse and rat). In each case, removal of the epithelium was verified histologically in 8 μm formalin-fixed, paraffin sections stained with haemotoxylin and eosin. Ring segments (approximately 2 mm long) of bronchi and bronchioles were mounted in Krebs (37° C.) on stainless steel wires (40 μm) in dual channel (5 ml) Mulvany-Halpern myographs (JP Trading, Aarhus, Denmark) to record changes in isometric force (Kemp and Cocks, 1997). After equilibration at a passive force between 0.2 g and 0.3 g, tissues were contracted to their maximum levels of active force (Fm.),) with acetylcholine (30 μM), thoroughly washed with Krebs and allowed to return to baseline. Various drugs or their vehicles were then added and 30 min later all tissues were contracted to approximately 40% Fmax with titrated concentrations of carbachol (10–500 nM). The L-type voltage-operated Ca^2+ channel inhibitor, nifedipine (0.3 μM) was added to all mouse and rat tissues after obtaining Fmax to control characteristic phasic contractile activity with carbachol.
# If no response occurred the tissues were then exposed to cumulative concentrations of either SLIGRL—NH2 (SEQ ID NO:2) or SFLLRN—NH2 (SEQ ID NO:1) (0.1–30 μM).
# (§3) Results are presented as mean±s.e mean and pEC50 (sensitivity) values were calculated by fitting concentration-response curves to a four parameter logistic function (Kemp and Cocks, 1997) using Graphpad Prism (version 2.0). Statistical comparison of mean pEC50 and maximum response (Rmax) values were compared by two-tailed unpaired Student's t-tests or one way analysis of variance (ANOVA) with Tukey-Kramer's t-tests for multiple comparisons. P<0.05 was accepted as significant. Unless specified, all averaged data are from n>5 experiments.
# Mouse bronchus preparations were carefully mounted horizontally on fine (40 μm) stainless steel wires attached to the jaws of a Mulvany-Halpem myograph. After 60 min at 37° C., all rings were stretched to 0.5 g passive force, which had been determined in preliminary experiments to be optimal, and allowed to recover from that stretch for a further 30 min. Maximum contraction (Fmax) in each tissue was then determined with exogenously applied acetylcholine (ACh; 30 μM) followed by washout. A further 30 min equilibration time was allowed before the tissues were actively contracted to between 20% and 60% of their individual Fm.” values with titrated concentrations of carbachol (10–100 nM). […] In some cases, tissues were treated with a range of drugs prior to contraction to approximately […] Fmax. These included the cyclooxygenase inhibitors indomethacin and aspirin, the nitric oxide (NO) synthase inhibitor N′-nitro-L-(L-NOARG), the NO scavenger oxyhaemoglobin (Hb0), and the L-voltage-operated Cat' channel inhibitor nifedipine.
# After an initial passive stretch to 0.5 g (Ti) and recovery, each ring was contracted with acetylcholine (Ach; 30 μM). The contraction was taken as the tissue maximum and referred to as Fmax.
# [13] = system: isolated human bronchioles
# Description: Small (500 μm) bronchioles were carefully dissected from discarded sections of human left lung which had been excised at surgery from two male lung cancer patients (Royal Melbourne Hospital, Melbourne, Australia).
# Dissection of these bronchioles required a fine-dissecting microscope and an assistant to continually flood the preparation with cold oxygenated Krebs solution to remove air bubbles and keep the tissue viable. Bronchioles approximately 2 mm in length were then mounted on […] diameter stainless wires in a Krebs solution-filled myograph chamber, as described for the mouse bronchus preparation above.
# [14] = system: human distal colon
# Description: Human distal colon strips obtained at bowel resection were suspended at 1 g passive isometric force and contracted with substance P (30 μM) to maintain a steady level of active tension.
# [15] = system: rat isolated bronchi
# From the text: as §2
# as §3, with “All cumulative responses (relaxations and contractions) were normalised as percentages of the initial level of active force to carbachol. Results” for “Results”
compound,measurement,setting,value
"Nc1ncnc2c1ncn2[C@@H]1O[C@H](COP(=O)(O)OP(=O)(O)OP(=O)(O)O)[C@@H](O)[C@H]1O [ATP, adenosine 5′-triphosphate]",increase in Isc in presence of indomethacin,[1],unaffected
same,change in Isc,[1],rapid initial rise in Isc usually followed by some degree of recovery until a steady plateau was reached
same,relaxation in presence of apamin,[2],no relaxation
"SFLLRN-NH2 (human PAR1 tethered ligand sequence, thrombin receptor-activating peptide)","pEC50, relaxation of carbachol-contracted mouse bronchial rings",[3],5.6 -log M
same,"pEC50, relaxation of first generation branches of the mouse main bronchi",[3],5.5 -log M
same,"pEC50, relaxation of human coronary artery after desensitisation to thrombin and trypsin",[4],6.4 -log M
same,"pEC50, relaxation of human coronary artery, untreated tissue",[4],7 -log M
same,"pEC50, relaxation of precontracted human coronary artery segments",[4],6.9 -log M
SLIGKV-NH2,change in Isc,[5],relatively poor response
same,maximum (Rmax % contraction reversal),[6],39.9±11.0%
same,effect on monkey small bronchi,[7],smooth muscle relaxing effects
SLIGKVD-NH2,activation of PAR1,[8],does not activate PAR1
"SLIGRL-NH2 (mouse PAR2 tethered ligand sequence, PAR2 activating peptide)","pEC50 (sensitivity), relaxation of carbachol-contracted mouse bronchial rings",[9],5.6 -log M
same,"pEC50, relaxation of first generation branches of the mouse main bronchi",[9],5.1 -log M
same,"pEC50, epithelium-dependent relaxation of rat isolated bronchi",[10],5.5 -log M
same,"pEC50, relaxation of rat bronchioles",[10],5.1 -log M
same,"pEC50, epithelium-dependent relaxation of guinea-pig isolated bronchi",[11],5.4 -log M
"alpha-thrombin (bovine serum, Sigma) (from UniProt P00735 318-625) (enzyme)","pEC50 (sensitivity), endothelium-dependent relaxation of U46619-contracted human coronary artery rings",[4],2.5 log U/ml
"prostaglandin E2 [PGE2, reference compound]",response of epithelium-intact bronchi,[12],potent and maximum relaxation
same,relaxation after removal of the epithelium,[12]; epithelium removed with 0.1% v/v Triton X-100,could still sensitively relax
same,maximum relaxation (Rmax),"[12]; main bronchi with epithelium, % of initial force to carbachol",100%
same,sensitivity (pEC50),"[12]; main bronchi with epithelium, contracted with carbachol",8.2±0.1 −log M
same,increase in Isc in presence of indomethacin,[1],unaffected
same,change in Isc,[1],rapid initial rise in Isc usually followed by some degree of recovery until a steady plateau was reached
thrombin,response of human bronchioles,[13],activity dependent relaxation that was reversed by indomethacin
same,response of epithelium-intact bronchi,[12],only poor indomethacin sensitive relaxation at high concentrations
same,response in presence of cyclooxygenase inhibitors,[12],converted to contractions by indomethacin
same,relaxation after removal of the endothelium,[6],abolished
same,maximum (Rmax % contraction reversal),[6],88.9±4.9%
same,response of human distal colon,[14],did not result in relaxation
same,response of rat bronchial rings,[15],small relaxation
same,effect on monkey small bronchi,[7],smooth muscle relaxing effects
trypsin,response of human bronchioles,[13],activity dependent relaxation that was reversed by indomethacin
same,response of epithelium-intact bronchi,[12],activity-dependent relaxation
same,response in presence of cyclooxygenase inhibitors,[12],blocked by indomethacin
same,relaxation after removal of the endothelium,[6],abolished
same,maximum (Rmax % contraction reversal),[6],88.1±2.9%
same,effect on monkey small bronchi,[7],smooth muscle relaxing effects
"trypsin (bovine pancreas, Worthington Biochem) (from UniProt P00760 24-246) (enzyme)","pEC50 (sensitivity), endothelium-dependent relaxation of U46619-contracted human coronary artery rings",[4],1.7 log U/ml
